What all share (format): cell-based
Assay [1] has as its system S. cerevisiae wildtype and deletion strains. The settings on record: S. cerevisiae, 3 hours of drug exposure.
For assay [2], the system named is C. albicans. Description: TUNEL assay of DNA strand breaks (flow cytometry). The conditions noted are these: after 2 hours of treatment. How it is done: The terminal deoxynucleotidyl transferase dUTP nick-end labeling (TUNEL) assay was used to quantify the relative abundance of DSBs in C. albicans cells treated with AFs and H2O2. The TUNEL reagent fluorescently labels both double- and single-strand DNA breaks (Ribeiro et al., 2006).
DNA strand breaks were fluorescently labeled with TUNEL reagent from the “In Situ Cell Death Detection Kit”, Roche (Mannheim, Germany). After 2 hours of treatment 5 ml of OD 0.2 cells were fixed with 3.7% formaldehyde for 30 min at room temperature, and then washed with digestion buffer consisting of 10 mM Mes pH 6.5 and 1 M sorbitol. Cell were digested for 45 min at 30° C. with 2 U of Yeast Lytic Enzyme, MP Biomedicals, (Irvine, Calif.) in 50 μl of digestion buffer. Cells were then washed in PBS with 1 M sorbitol and resuspended in permeabilization solution consisting of 0.1% Triton X-100 and 0.1% sodium citrate and 1 M sorbitol for 10 min at room temperature. Cell were again washed in PBS with 1 M sorbitol and labeled for 60 min with 10 μl of TUNEL reaction mixture. Cells were then again washed in PBS with 1 M sorbitol and resuspended in sheath fluid. Mean relative florescence was measured by flow cytometry on the FACSCalibur (Becton-Dickinson).
On the technique in general: Flow cytometry measures light scatter and fluorescence of single cells or particles in a stream.

Another assay concerns S. cerevisiae. In words: ROS formation by HPF fluorescence (flow cytometry). The conditions noted are these: wildtype S. cerevisiae, SDC, after 1.5 hours of treatment. Here is the method:
(§1) The formation of ROS following AF treatment in yeast was measured using the dye 3′-(p-hydroxyphenyl) fluorescein (HPF), which is preferentially oxidized by intracellular hydroxyl radicals into a fluorescent product (Kohanski et al., 2007). Exponentially growing wildtype S. cerevisiae and C. albicans were treated in synthetic dextrose complete (SDC) medium with the minimum concentration of fungicide required to achieve at least a 90% reduction in colony forming units (CFU) after three hours of exposure. As a positive control, cells were also treated with H2O2, a potent inducer of hydroxyl radical formation (Perrone et al., 2008).
(§2) Overnight yeast cultures were diluted into the indicated media and grown to an OD600 of 0.2, at which point the AFs were added. Colony forming units (CFU) were measured by plating six serial dilutions onto YPD agar plates. Cells treated with MCZ were washed before serial dilution to stop growth inhibition associated with high concentrations of MCZ. CFU were counted after three days of incubation on agar plates. When indicated, thiourea (Fluka) was added 30 min prior to the addition of AFs. HPF (10 μM) (Invitrogen) and Mito Tracker (1 μM) (Invitrogen) dyes were added to PBS-washed cells at the indicated time points and incubated for 30 min prior to flow cytometry measurements, which were taken on the FACSCalibur (Becton-Dickinson). All experiments described in this section were conducted in 0.5 ml of SDC in 24-well plates incubated at 900 rpm and 37° C. for C. albicans and 30° C. and 300 rpm for S. cerevisiae. TUNEL assays were conducted as previously described (Ribeiro et al., 2006) and are described in detail in the TUNEL section of the Experimental Procedures.

Assay [3] concerns C. albicans. In words: ROS formation by HPF fluorescence (flow cytometry). The settings on record: wildtype C. albicans, SDC, after 1.5 hours of treatment (CAS 0.5 μg/ml). Here is the method:
as §1, §2

The subject of assay [4] is C. albicans. In words: Metabolomic profiling of intracellular metabolites (Metabolon). Here is the method:
The results described herein link AF treatment to distinct changes in intracellular metabolic activity as part of an induced common killing mechanism. To further explore the role of metabolism in AF-induced cellular death, the effect of AF treatment on the intracellular metabolome of C. albicans was measured. To do so, a platform for metabolite detection and relative quantification from Metabolon Inc. (Durham, USA) (Evans et al., 2009) was utilized. Exponentially growing C. albicans cells were treated with AFs and samples collected for metabolomic analysis after 1.5 hours of treatment, a time point when it was expected that at least 90% of cells contributing to the metabolite pool would be irreversibly committed to the death pathway (FIGS. 7A-7D).
C. albicans cells were lysed and assayed by Metabolon Inc. (Durham, USA) as previously described (Shakoury-Elizeh et al., 2010). ATP and AMP were extracted as previously described (Walther et al., 2010) and analyzed by HPLC. This procedure is more fully described elsewhere herein.
C. albicans cells were incubated in 100 ml of SDC in 250 ml flasks at 37° C. and 300 rpm. Cells were exposed to AFs at an OD600 of 0.2, and cellular pellets from 100 ml of media were collected after 1.5 h of treatment. Cells were lysed and assayed by Metabolon Inc. (Durham, USA) as previously described (Evans et al., 2009; Shakoury-Elizeh et al., 2010).

Molecules are shown by their SMILES.

On to `OO` [H2O2], for which the “susceptibility of rad50 and rad52 knockouts vs wildtype” value in assay [1] is “considerably more susceptible”. Further, the “TUNEL relative fluorescence (DNA breaks)” value with C. albicans [2] is recorded as “elevated relative fluorescence”. Moreover, the “HPF fluorescence (formation of ROS)” value in the assay on S. cerevisiae and in the assay on C. albicans [3] was “dramatic induction of HPF fluorescence” each time.

`CC[C@H](C)C[C@H](C)CCCCCCCCC(=O)N[C@H]1C[C@@H](O)[C@@H](NCCN)NC(=O)[C@@H]2[C@@H](O)CCN2C(=O)[C@H]([C@H](O)CCN)NC(=O)[C@H]([C@H](O)[C@@H](O)c2ccc(O)cc2)NC(=O)[C@@H]2C[C@@H](O)CN2C(=O)[C@H]([C@@H](C)O)NC1=O` [caspofungin]: the “intracellular sugars (fructose, mannose, trehalose) abundance vs control” value with C. albicans [4] (1.5 hours of treatment) is given as “elevation of sugars”. In addition, the “fermentative waste products (2,3-butanediol and glycerol)” value in the assay with C. albicans [4] (1.5 hours of treatment, vs untreated) is recorded as “reduction in fermentative byproducts”. The “metabolic changes compared with those induced by AMB, MCZ and CIC” value in the assay on C. albicans [4] (CAS 0.5 μg/ml, 1.5 hours) is listed as “similar”. For the same molecule, in the assay with C. albicans [3], the “HPF fluorescence (formation of ROS)” value is “elevated ROS levels”.

The values are drawn from US20150366890A1, “COMPOSITIONS AND METHODS FOR TREATING FUNGAL INFECTIONS” (TRUSTEES OF BOSTON UNIVERSITY, priority 2013, published 2015).
